In ChEMBL document CHEMBL1649101, “Desmethyl Macrolide Analogues to Address Antibiotic Resistance: Total Synthesis and Biological Evaluation of 4,8,10-Tridesmethyl Telithromycin” (2011):
In brackets after ≈: the same amount, converted by molar mass. Each block holds one molecule with its values, some of them ahead of it.

What was measured:
Assay type in all cases: functional
[1] = test system: Escherichia coli; experiment: Antibacterial activity against wild type Escherichia coli DK/pKK3535
[2] = test system: Escherichia coli; experiment: Antibacterial activity against Escherichia coli SQ171/2058G harboring ribosomal A2058G mutant
[3] = test system: Escherichia coli; experiment: Antibacterial activity against Escherichia coli DK/2058G harboring ribosomal A2058G mutant
[4] = test system: Staphylococcus aureus; experiment: Antibacterial activity against Staphylococcus aureus UCN14 harboring ribosomal […] mutant
[5] = test system: Staphylococcus aureus; experiment: Antibacterial activity against Staphylococcus aureus ATCC 33591 harboring ermA mutant

MIC [1]: 32 µg/mL (≈ 41.6 µM)
Compound: CC[C@H]1OC(=O)[C@H](C)C(=O)C[C@@H](O[C@@H]2O[C@H](C)C[C@H](N(C)C)[C@H]2O)[C@@](C)(OC)CCC(=O)C[C@@H]2N(CCCCn3cnc(-c4cccnc4)c3)C(=O)O[C@@]21C

Compound: CC[C@H]1OC(=O)[C@H](C)C(=O)[C@H](C)[C@@H](O[C@@H]2O[C@H](C)C[C@H](N(C)C)[C@H]2O)[C@](C)(OC)C[C@@H](C)C(=O)[C@H](C)[C@H]2N(CCCCn3cnc(-c4cccnc4)c3)C(=O)O[C@]12C [TELITHROMYCIN]
MIC [2]: > 512 µg/mL
MIC [1]: 0.5 µg/mL (≈ 0.616 µM)
MIC [3]: 1 µg/mL (≈ 1.23 µM)
MIC [4]: > 256 µg/mL
MIC [5]: > 128 µg/mL
